Test system: PBMC (polyclonal gluten-specific T cells) of paediatric and adult CD patients
Assay: IFN-γ ELISpot of PBMC after 3 day oral wheat challenge (SFU, % of maximal peptide response, dominance scores, EC50; Examples 5-6)
Assay type: cell-based, human
Conditions: for Cross-reactive T cell response: following wheat challenge; for IFN-γ ELISpot response: after oral wheat challenge
[1] = patient A, 11-17 yrs, cut-off 10 SFU
[2] = patient E, H, 11-17 yrs, cut-off 10 SFU
[3] = patient F, 11-17 yrs, cut-off 10 SFU
[4] = patient G, 11-17 yrs, cut-off 10 SFU
[5] = patient H (HLA-DQ2.5 homozygote), 3-5yrs, cut-off 10 SFU
[6] = patient H, 11-17 yrs, cut-off 10 SFU
[7] = patient ID not given, 11-17 yrs, cut-off 10 SFU
[8] = patient ID not given, max peptide 95 SFU
[9] = patient N, 3-5yrs, cut-off 10 SFU
[10] = patient P, 11-17 yrs, cut-off 21.6 SFU
[11] = patient Q, 11-17 yrs, cut-off 10 SFU
[12] = patient U, H, 11-17 yrs, cut-off 10 SFU
[13] = patient V, 6-10 yrs, cut-off 10 SFU
[14] = patient Y, 6-10 yrs, cut-off 10 SFU
[15] = patient eleven, 6-10 yrs, cut-off 10 SFU
[16] = patient eleven, max peptide 57 SFU
[17] = patient five, max peptide 48 SFU
[18] = patient four, 3-5yrs, cut-off 10 SFU
[19] = patient four, max peptide 44 SFU
[20] = patient seven, 6-10 yrs, cut-off 10.5 SFU
[21] = patient ten, 3-5yrs, cut-off 10 SFU
[22] = patient three, 6-10 yrs, cut-off 10.5 SFU
[23] = patient twelve, 11-17 yrs, cut-off 10 SFU
[24] = patient two, 3-5yrs, cut-off 10 SFU
[25] = patient two, max peptide 60 SFU
[26] = patient ten, max peptide 14.5 SFU

## LPFPQPEQPFVVV
Subject A, 11-17yrs
  Cross-reactive T cell response: 1 SFU
Subject D, 11-17yrs
  Significant response as a percentage of maximal peptide SFU: ′′′ (41-70% = ′′′)
  Cross-reactive T cell response: 20 SFU
Subject E, 11-17yrs
  Significant response as a percentage of maximal peptide SFU: (6-10% - ^)
  Cross-reactive T cell response: 16 SFU
Subject F, 11-17yrs
  Significant response as a percentage of maximal peptide SFU: (6-10% - ^)
  Cross-reactive T cell response: 15 SFU
Subject G, 11-17yrs
  Cross-reactive T cell response: 3 SFU
Subject H
  Cross-reactive T cell response: 3 SFU
Subject I (3-5yrs/6-10yrs part)
  Cross-reactive T cell response: 7 SFU
Subject J
  Significant response as a percentage of maximal peptide SFU: ′ (11-20% = ′)
Subject J (3-5yrs/6-10yrs part)
  Cross-reactive T cell response: 29 SFU
Subject K
  Significant response as a percentage of maximal peptide SFU: ′′ (21-40% = ′′)
Subject K (3-5yrs/6-10yrs part)
  Cross-reactive T cell response: 18 SFU
Subject P, 11-17yrs
  Cross-reactive T cell response: 20 SFU
Subject Q, 11-17yrs
  Significant response as a percentage of maximal peptide SFU: ′′ (21-40% = ′′)
  Cross-reactive T cell response: 31 SFU
Subject T, 11-17yrs
  Significant response as a percentage of maximal peptide SFU: ′′′ (41-70% = ′′′)
  Cross-reactive T cell response: 42 SFU
Subject U, 11-17yrs
  Cross-reactive T cell response: 8 SFU
Subject V
  Significant response as a percentage of maximal peptide SFU: ′′ (21-40% = ′′)
Subject V (3-5yrs/6-10yrs part)
  Cross-reactive T cell response: 13 SFU
Subject W (3-5yrs/6-10yrs part)
  Cross-reactive T cell response: 9 SFU
Subject Y (3-5yrs/6-10yrs part)
  Cross-reactive T cell response: 7 SFU
Subject five
  Significant response as a percentage of maximal peptide SFU: + (>70% = +)
Subject five (3-5yrs/6-10yrs part)
  Cross-reactive T cell response: 34 SFU
Subject nine, 11-17yrs
  Cross-reactive T cell response: 1 SFU
Subject seven (3-5yrs/6-10yrs part)
  Cross-reactive T cell response: 3 SFU
Subject six (3-5yrs/6-10yrs part)
  Cross-reactive T cell response: 8 SFU
Subject ten (3-5yrs/6-10yrs part)
  Cross-reactive T cell response: 8 SFU
Subject two
  Significant response as a percentage of maximal peptide SFU: ′′ (21-40% = ′′)
Subject two (3-5yrs/6-10yrs part)
  Cross-reactive T cell response: 18 SFU

## LPYPQPQLPYPQP
[1]
  IFN-γ ELISpot response: 3 SFU
[2]
  IFN-γ ELISpot response: 61 SFU
Patient E, max peptide 224 SFU
  Significant response as percentage of maximal peptide SFU: ′′ (21-40% = ′′)
[3]
  IFN-γ ELISpot response: 120 SFU
Patient F, max peptide 178 SFU
  Significant response as percentage of maximal peptide SFU: ′′′ (41-70% = ′′′)
[4]
  IFN-γ ELISpot response: 2 SFU
[5]
  IFN-γ ELISpot response: 13 SFU
[6]
  IFN-γ ELISpot response: 13 SFU
Patient H, max peptide 17 SFU
  Significant response as percentage of maximal peptide SFU: + (>70% = +)
[7]
  IFN-γ ELISpot response: 49 SFU
[8]
  Significant response as percentage of maximal peptide SFU: ′′′ (41-70% = ′′′)
Patient II, max peptide 15 SFU
  Significant response as percentage of maximal peptide SFU: + (>70% = +)
Patient J, max peptide 196 SFU
  Significant response as percentage of maximal peptide SFU: ′′ (21-40% = ′′)
Patient K, max peptide 53 SFU
  Significant response as percentage of maximal peptide SFU: ′′ (21-40% = ′′)
Patient M, max peptide 48 SFU
  Significant response as percentage of maximal peptide SFU: ′′ (21-40% = ′′)
[9]
  IFN-γ ELISpot response: 3 SFU
[10]
  IFN-γ ELISpot response: 17 SFU
[11]
  IFN-γ ELISpot response: 53 SFU
Patient Q, max peptide 97 SFU
  Significant response as percentage of maximal peptide SFU: ′′′ (41-70% = ′′′)
[12]
  IFN-γ ELISpot response: 25 SFU
Patient U, max peptide 81 SFU
  Significant response as percentage of maximal peptide SFU: ′′ (21-40% = ′′)
[13]
  IFN-γ ELISpot response: 18 SFU
Patient V, max peptide 35 SFU
  Significant response as percentage of maximal peptide SFU: ′′′ (41-70% = ′′′)
[14]
  IFN-γ ELISpot response: 16 SFU
Patient Y, max peptide 16 SFU
  Significant response as percentage of maximal peptide SFU: + (>70% = +)
[15]
  IFN-γ ELISpot response: 25 SFU
[16]
  Significant response as percentage of maximal peptide SFU: ′′′ (41-70% = ′′′)
[17]
  Significant response as percentage of maximal peptide SFU: ′′ (21-40% = ′′)
[18]
  IFN-γ ELISpot response: 22 SFU
[19]
  Significant response as percentage of maximal peptide SFU: ′′′ (41-70% = ′′′)
[20]
  IFN-γ ELISpot response: 8 SFU
[21]
  IFN-γ ELISpot response: 7 SFU
[22]
  IFN-γ ELISpot response: 75 SFU
[23]
  IFN-γ ELISpot response: 5 SFU
[24]
  IFN-γ ELISpot response: 14 SFU
[25]
  Significant response as percentage of maximal peptide SFU: ′′ (21-40% = ′′)

## LQPFPQPELPYPQPQ
[1]
  IFN-γ ELISpot response: 2.5 SFU
Patient D, max peptide 30.5 SFU
  Significant response as percentage of maximal peptide SFU: + (>70% = +)
[2]
  IFN-γ ELISpot response: 152 SFU
Patient E, max peptide 224 SFU
  Significant response as percentage of maximal peptide SFU: ′′′ (41-70% = ′′′)
[3]
  IFN-γ ELISpot response: 166.5 SFU
Patient F, max peptide 178 SFU
  Significant response as percentage of maximal peptide SFU: + (>70% = +)
[4]
  IFN-γ ELISpot response: 10 SFU
Patient G, max peptide 15 SFU
  Significant response as percentage of maximal peptide SFU: ′′′ (41-70% = ′′′)
[5]
  IFN-γ ELISpot response: 31 SFU
[6]
  IFN-γ ELISpot response: 8 SFU
[7]
  IFN-γ ELISpot response: 66.5 SFU
[8]
  Significant response as percentage of maximal peptide SFU: ′′′ (41-70% = ′′′)
Patient J, max peptide 196 SFU
  Significant response as percentage of maximal peptide SFU: ′′′ (41-70% = ′′′)
Patient K, max peptide 53 SFU
  Significant response as percentage of maximal peptide SFU: ′′ (21-40% = ′′)
Patient M, max peptide 48 SFU
  Significant response as percentage of maximal peptide SFU: ′′′ (41-70% = ′′′)
[9]
  IFN-γ ELISpot response: 5.5 SFU
[10]
  IFN-γ ELISpot response: 41.5 SFU
Patient P, max peptide 64 SFU
  Significant response as percentage of maximal peptide SFU: ′′′ (41-70% = ′′′)
[11]
  IFN-γ ELISpot response: 67.5 SFU
Patient Q, max peptide 97 SFU
  Significant response as percentage of maximal peptide SFU: ′′′ (41-70% = ′′′)
[12]
  IFN-γ ELISpot response: 45 SFU
Patient U, max peptide 81 SFU
  Significant response as percentage of maximal peptide SFU: ′′′ (41-70% = ′′′)
[13]
  IFN-γ ELISpot response: 30 SFU
Patient V, max peptide 35 SFU
  Significant response as percentage of maximal peptide SFU: + (>70% = +)
[14]
  IFN-γ ELISpot response: 10.5 SFU
Patient Y, max peptide 16 SFU
  Significant response as percentage of maximal peptide SFU: ′′′ (41-70% = ′′′)
Patient Z, max peptide 13 SFU
  Significant response as percentage of maximal peptide SFU: + (>70% = +)
Patient eight, max peptide 12 SFU
  Significant response as percentage of maximal peptide SFU: + (>70% = +)
[15]
  IFN-γ ELISpot response: 57 SFU
[16]
  Significant response as percentage of maximal peptide SFU: + (>70% = +)
[17]
  Significant response as percentage of maximal peptide SFU: + (>70% = +)
[18]
  IFN-γ ELISpot response: 40.5 SFU
Patient one, max peptide 16.5 SFU
  Significant response as percentage of maximal peptide SFU: + (>70% = +)
[20]
  IFN-γ ELISpot response: 8 SFU
Patient six, 3-5yrs, cut-off 10 SFU
  IFN-γ ELISpot response: 13 SFU
Patient six, max peptide 13 SFU
  Significant response as percentage of maximal peptide SFU: + (>70% = +)
[21]
  IFN-γ ELISpot response: 14 SFU
[26]
  Significant response as percentage of maximal peptide SFU: + (>70% = +)
[22]
  IFN-γ ELISpot response: 99.5 SFU
[23]
  IFN-γ ELISpot response: 27 SFU
[24]
  IFN-γ ELISpot response: 29 SFU
[25]
  Significant response as percentage of maximal peptide SFU: ′′′ (41-70% = ′′′)

## LQPFPQPELPYSQP
[1]
  IFN-γ ELISpot response: 3 SFU
[2]
  IFN-γ ELISpot response: 104 SFU
Patient E, max peptide 224 SFU
  Significant response as percentage of maximal peptide SFU: ′′′ (41-70% = ′′′)
[3]
  IFN-γ ELISpot response: 81 SFU
Patient F, max peptide 178 SFU
  Significant response as percentage of maximal peptide SFU: ′′′ (41-70% = ′′′)
[4]
  IFN-γ ELISpot response: 5 SFU
[5]
  IFN-γ ELISpot response: 36 SFU
[6]
  IFN-γ ELISpot response: 15 SFU
Patient H, max peptide 17 SFU
  Significant response as percentage of maximal peptide SFU: + (>70% = +)
[7]
  IFN-γ ELISpot response: 53 SFU
[8]
  Significant response as percentage of maximal peptide SFU: ′′′ (41-70% = ′′′)
Patient II, max peptide 15 SFU
  Significant response as percentage of maximal peptide SFU: + (>70% = +)
Patient J, max peptide 196 SFU
  Significant response as percentage of maximal peptide SFU: ′′ (21-40% = ′′)
Patient M, max peptide 48 SFU
  Significant response as percentage of maximal peptide SFU: + (>70% = +)
[9]
  IFN-γ ELISpot response: 3 SFU
[10]
  IFN-γ ELISpot response: 37 SFU
Patient P, max peptide 64 SFU
  Significant response as percentage of maximal peptide SFU: ′′′ (41-70% = ′′′)
[11]
  IFN-γ ELISpot response: 29 SFU
Patient Q, max peptide 97 SFU
  Significant response as percentage of maximal peptide SFU: ′′ (21-40% = ′′)
[12]
  IFN-γ ELISpot response: 25 SFU
Patient U, max peptide 81 SFU
  Significant response as percentage of maximal peptide SFU: ′′ (21-40% = ′′)
[13]
  IFN-γ ELISpot response: 19 SFU
Patient V, max peptide 35 SFU
  Significant response as percentage of maximal peptide SFU: ′′′ (41-70% = ′′′)
[14]
  IFN-γ ELISpot response: 12 SFU
Patient Y, max peptide 16 SFU
  Significant response as percentage of maximal peptide SFU: + (>70% = +)
[15]
  IFN-γ ELISpot response: 39 SFU
[16]
  Significant response as percentage of maximal peptide SFU: ′′′ (41-70% = ′′′)
[17]
  Significant response as percentage of maximal peptide SFU: ′′′ (41-70% = ′′′)
[18]
  IFN-γ ELISpot response: 22 SFU
[19]
  Significant response as percentage of maximal peptide SFU: ′′′ (41-70% = ′′′)
[20]
  IFN-γ ELISpot response: 6 SFU
[21]
  IFN-γ ELISpot response: 11 SFU
[26]
  Significant response as percentage of maximal peptide SFU: + (>70% = +)
[22]
  IFN-γ ELISpot response: 71 SFU
[23]
  IFN-γ ELISpot response: 6 SFU
[24]
  IFN-γ ELISpot response: 13 SFU
[25]
  Significant response as percentage of maximal peptide SFU: ′ (11-20% = ′)

Reference: US20170232083A1, “METHODS OF DIAGNOSIS AND TREATMENT OF CELIAC DISEASE IN CHILDREN” (priority 2014, published 2017)
